Literature values as cited in patent publication US10053407B2, “Crystalline cannabidivarin” (S&B Pharma, Inc., priority 2016, dated 2018).

Tested on: epilepsy
Details: animal studies; 50 and 100 mg/kg, delivered intra-peritoneally; cannabidivarin prepared by non-synthetic methods

## C=C(C)[C@@H]1CCC(C)=C[C@H]1c1c(O)cc(CCC)cc1O [cannabidivarin]
  mortality: effective in reducing mortality
